Measurements reported in ChEMBL document CHEMBL1201862, “PubChem BioAssay data set” (2004).
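These data come from cells grown in 96-well plates and exposed to compound for 48 hours at five concentrations. GI50 marks 50% less growth.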 Calls of active or inactive are those of the source. No stated cut-off is given here; in the data, active = GI50 up to about 1.1 µM and inactive = higher.

How the values were obtained:
Test in all cases: inhibition of tumour cell growth, NCI panel, 48 h
NCI-H522 = tested on: NCI-H522
NCI/ADR-RES = tested on: NCI/ADR-RES
HT-29 = tested on: HT-29
HL-60 = tested on: HL-60
SF-268 = tested on: SF-268
HOP-92 = tested on: HOP-92
SK-OV-3 = tested on: SK-OV-3
K562 = tested on: K562
SW-620 = tested on: SW-620
SK-MEL-5 = tested on: SK-MEL-5
RXF 393 = tested on: RXF 393
NCI-H23 = tested on: NCI-H23
CCRF-CEM = tested on: CCRF-CEM
OVCAR-5 = tested on: OVCAR-5
UACC-257 = tested on: UACC-257
SF-539 = tested on: SF-539
T47D = tested on: T47D
MOLT-4 = tested on: MOLT-4
ACHN = tested on: ACHN
PC-3 = tested on: PC-3
SK-MEL-2 = tested on: SK-MEL-2
MDA-MB-231 = tested on: MDA-MB-231
Hs-578T = tested on: Hs-578T
A549 = tested on: A549
EKVX = tested on: EKVX
786-0 = tested on: 786-0
TK-10 = tested on: TK-10
NCI-H226 = tested on: NCI-H226
MCF7 = tested on: MCF7
KM12 = tested on: KM12
OVCAR-3 = tested on: OVCAR-3
BT-549 = tested on: BT-549
IGROV-1 = tested on: IGROV-1
SN12C = tested on: SN12C
Malme-3M = tested on: Malme-3M
COLO 205 = tested on: COLO 205
HCT-116 = tested on: HCT-116
U-251 = tested on: U-251
HCT-15 = tested on: HCT-15
UO-31 = tested on: UO-31
MDA-N = tested on: MDA-N
SF-295 = tested on: SF-295
SR = tested on: SR
M14 = tested on: M14
A498 = tested on: A498
MDA-MB-435 = tested on: MDA-MB-435
SNB-75 = tested on: SNB-75
CAKI-1 = tested on: CAKI-1
DU-145 = tested on: DU-145
SNB-19 = tested on: SNB-19
LOX IMVI = tested on: LOX IMVI
RPMI-8226 = tested on: RPMI-8226
OVCAR-4 = tested on: OVCAR-4
HOP-62 = tested on: HOP-62
SK-MEL-28 = tested on: SK-MEL-28
OVCAR-8 = tested on: OVCAR-8
UACC-62 = tested on: UACC-62
HCC 2998 = tested on: HCC 2998
NCI-H460 = tested on: NCI-H460

## FC(F)(F)c1cc(N(C2c3ccccc3C=Cc3ccccc32)P(Cl)Cl)cc(C(F)(F)F)c1
NCI-H522
  GI50: 14100 nM (inactive)
NCI/ADR-RES
  GI50: 3620 nM (inactive)
HT-29
  GI50: 24500 nM (inactive)
HL-60
  GI50: 20000 nM (inactive)
SF-268
  GI50: 17200 nM (inactive)
HOP-92
  GI50: 15600 nM (inactive)
SK-OV-3
  GI50: 25400 nM (inactive)
K562
  GI50: 15200 nM (inactive)
SW-620
  GI50: 25400 nM (inactive)
SK-MEL-5
  GI50: 18100 nM (inactive)
RXF 393
  GI50: 13800 nM (inactive)
NCI-H23
  GI50: 18000 nM (inactive)
CCRF-CEM
  GI50: 24000 nM (inactive)
OVCAR-5
  GI50: 20000 nM (inactive)
UACC-257
  GI50: 18300 nM (inactive)
SF-539
  GI50: 26700 nM (inactive)
T47D
  GI50: 17900 nM (inactive)
MOLT-4
  GI50: 13100 nM (inactive)
ACHN
  GI50: 17500 nM (inactive)
PC-3
  GI50: 22700 nM (inactive)
SK-MEL-2
  GI50: 18700 nM (inactive)
MDA-MB-231
  GI50: 18600 nM (inactive)
Hs-578T
  GI50: 25500 nM (inactive)
A549
  GI50: 18300 nM (inactive)
EKVX
  GI50: 17100 nM (inactive)
786-0
  GI50: 16800 nM (inactive)
TK-10
  GI50: 33000 nM (inactive)
NCI-H226
  GI50: 19100 nM (inactive)
MCF7
  GI50: 20700 nM (inactive)
KM12
  GI50: 21400 nM (inactive)
OVCAR-3
  GI50: 16400 nM (inactive)
BT-549
  GI50: 706 nM (active)
IGROV-1
  GI50: 26200 nM (inactive)
SN12C
  GI50: 16900 nM (inactive)
Malme-3M
  GI50: 17500 nM (inactive)
COLO 205
  GI50: 22200 nM (inactive)
HCT-116
  GI50: 16500 nM (inactive)
U-251
  GI50: 17800 nM (inactive)
HCT-15
  GI50: 5780 nM
UO-31
  GI50: 17600 nM (inactive)
MDA-N
  GI50: 22000 nM (inactive)
SF-295
  GI50: 19000 nM (inactive)
SR
  GI50: 16000 nM (inactive)
M14
  GI50: 22800 nM (inactive)
A498
  GI50: 26900 nM (inactive)
MDA-MB-435
  GI50: 21800 nM (inactive)
SNB-75
  GI50: 19300 nM (inactive)
CAKI-1
  GI50: 21900 nM (inactive)
DU-145
  GI50: 19300 nM (inactive)
SNB-19
  GI50: 21800 nM (inactive)
LOX IMVI
  GI50: 18500 nM (inactive)
RPMI-8226
  GI50: 18000 nM (inactive)
OVCAR-4
  GI50: 18900 nM (inactive)
HOP-62
  GI50: 17600 nM (inactive)
SK-MEL-28
  GI50: 25600 nM (inactive)
OVCAR-8
  GI50: 17600 nM (inactive)

## c1ccc2c(c1)Nc1c3ccccc3nc3cccc-2c13
NCI-H522
  GI50: 1230 nM (inactive)
NCI/ADR-RES
  GI50: 1050 nM (active)
HT-29
  GI50: 546 nM (active)
HL-60
  GI50: 1580 nM (inactive)
SF-268
  GI50: 1490 nM (inactive)
SK-OV-3
  GI50: 1350 nM (inactive)
K562
  GI50: 386 nM (active)
SW-620
  GI50: 283 nM (active)
SK-MEL-5
  GI50: 1420 nM (inactive)
RXF 393
  GI50: 1510 nM (inactive)
NCI-H23
  GI50: 1350 nM (inactive)
CCRF-CEM
  GI50: 305 nM (active)
OVCAR-5
  GI50: 1430 nM (inactive)
UACC-257
  GI50: 1730 nM (inactive)
SF-539
  GI50: 1600 nM (inactive)
T47D
  GI50: 2060 nM (inactive)
MOLT-4
  GI50: 157 nM (active)
ACHN
  GI50: 818 nM (active)
UACC-62
  GI50: 1630 nM (inactive)
PC-3
  GI50: 968 nM (active)
SK-MEL-2
  GI50: 1600 nM (inactive)
MDA-MB-231
  GI50: 923 nM (active)
Hs-578T
  GI50: 1730 nM (inactive)
A549
  GI50: 1050 nM (active)
HCC 2998
  GI50: 1020 nM (active)
EKVX
  GI50: 1550 nM (inactive)
786-0
  GI50: 638 nM (active)
TK-10
  GI50: 1730 nM (inactive)
NCI-H226
  GI50: 2010 nM (inactive)
MCF7
  GI50: 1240 nM (inactive)
KM12
  GI50: 1120 nM (active)
OVCAR-3
  GI50: 1460 nM (inactive)
BT-549
  GI50: 7430 nM (inactive)
IGROV-1
  GI50: 1210 nM (inactive)
SN12C
  GI50: 979 nM (active)
Malme-3M
  GI50: 1660 nM (inactive)
COLO 205
  GI50: 857 nM (active)
HCT-116
  GI50: 499 nM (active)
U-251
  GI50: 998 nM (active)
HCT-15
  GI50: 632 nM
UO-31
  GI50: 1360 nM (inactive)
MDA-N
  GI50: 1170 nM (inactive)
SF-295
  GI50: 1170 nM (inactive)
SR
  GI50: 462 nM (active)
M14
  GI50: 1760 nM (inactive)
NCI-H460
  GI50: 378 nM (active)
A498
  GI50: 2510 nM (inactive)
MDA-MB-435
  GI50: 1610 nM (inactive)
SNB-75
  GI50: 1650 nM (inactive)
CAKI-1
  GI50: 1080 nM (active)
DU-145
  GI50: 1480 nM (inactive)
SNB-19
  GI50: 1820 nM (inactive)
LOX IMVI
  GI50: 877 nM (active)
RPMI-8226
  GI50: 587 nM (active)
OVCAR-4
  GI50: 1150 nM (inactive)
HOP-62
  GI50: 1020 nM (active)
SK-MEL-28
  GI50: 1710 nM (inactive)
OVCAR-8
  GI50: 507 nM (active)
